Source: patent US8754226B2, “Piperidinyl-substituted lactams as GPR119 modulators” (Array BioPharma Inc., priority 2010, dated 2014)
Where a name gives a salt, the structure may show the parent alone.

Test system: modified version of the GPR119 receptor (94% identity to human receptor)
Assay: cAMP production assay (LANCE cAMP kit, TR-FRET) in HEK-293 cells
Type: cell-based
Details: for cAMP production in HEK-293 cells: HEK-293 cells stably expressing modified GPR119, test compounds 0.2 nM to 10 μM, one-hour incubation at ambient temperature; for Fold over baseline: increase in cAMP relative to basal levels, agonist activity if 1.5-fold or greater
Experimental: The assay utilized HEK-293 cells that stably express a modified version of the GPR119 receptor (94% identity to human receptor), under the control of a CMV promoter containing a tet-on element for tetracycline-inducible expression. GPR119 agonist-induced cyclic AMP (cAMP) production was measured in this cell line using the LANCE cAMP kit (Perkin Elmer, Waltham, Mass.). To generate a working stock of cells for the assay, cells were treated overnight with 1 μg/mL doxycycline at 37° C. in the presence of 5% CO2 to induce receptor expression. Cells were then harvested by enzymatic dissociation with 0.05% trypsin, resuspended in freezing medium (DMEM growth medium with 10% each of fetal bovine serum and DMSO), aliquoted and frozen at −80° C. On the day of the assay, frozen cells were thawed, washed 1× in PBS and resuspended in Hank's buffered salt solution (HBSS) containing 5 mM HEPES, 0.1% BSA and Alexa Fluor 647-conjugated anti-cAMP antibody (diluted 1:100). The cell suspension was then transferred to a Proxiplate Plus white 384-well assay plate (Perkin-Elmer) at 2000 cells/well. Test compounds at final concentrations ranging from 0.2 nM to 10 μM were added to the assay plate, followed by a one-hour incubation at ambient temperature (volume=10 μL/well). DMSO concentration was held constant at 0.5%. After incubation with test compounds, 10 μL of a detergent buffer containing a biotinylated cAMP/Europium-conjugated streptavidin complex (Europium-labeled cAMP tracer) were added to each well on the assay plate, followed by a 2-hour incubation at ambient temperature. During this incubation cAMP released from lysed cells competes with the Europium-labeled cAMP tracer for binding to the Alexa Fluor 647-conjugated antibody. […] Cellular cAMP levels were then determined by interpolation of raw signal data using a cAMP standard curve. Compounds were determined to have agonist activity if they stimulated a 1.5-fold or greater increase in cAMP relative to basal levels.

Row | Structure (SMILES) | cAMP production in HEK-293 cells [nmol] | Fold over baseline
1 | CS(=O)(=O)c1cc(F)c(N[C@H]2CCCCN(C3CCN(c4cnc(Cl)cn4)CC3)C2=O)cc1F.Cl [Example 81, (S)-1-(1-(5-chloropyrazin-2-yl)piperidin-4-yl)-3-(2,5-difluoro-4-(methylsulfonyl)phenylamino)azepan-2-one hydrochloride] | 22.7 | 5.0
2 | CCCc1cnc(N2CCC(N3CCC[C@H](Nc4ccc(S(C)(=O)=O)cc4F)C3=O)CC2)nc1 [Example 42, (S)-3-(2-fluoro-4-(methylsulfonyl)phenylamino)-1′-(5-propylpyrimidin-2-yl)-[1,4′-bipiperidin]-2-one] | 5.7 | 2.1
3 | CS(=O)(=O)c1ccc(N[C@H]2CCN(C3CCN(c4ncc(C(F)(F)F)cc4Cl)CC3)C2=O)cn1 [Example 119, (S)-1-(1-(3-chloro-5-(trifluoromethyl)pyridin-2-yl)piperidin-4-yl)-3-(6-(methylsulfonyl)pyridin-3-ylamino)pyrrolidin-2-one] | 16.3 | 3.3
4 | Cc1cc(N[C@H]2CCN(C3CCN(c4ncc(Cl)cc4F)CC3)C2=O)cnc1S(C)(=O)=O [Example 120, (S)-1-(1-(5-chloro-3-fluoropyridin-2-yl)piperidin-4-yl)-3-(5-methyl-6-(methylsulfonyl)pyridin-3-ylamino) pyrrolidin-2-one] | 18.6 | 3.8
5 | Cc1nc(S(C)(=O)=O)ccc1N[C@H]1CCN(C2CCN(c3cnc(Cl)cn3)CC2)C1=O [Example 133, (S)-1-(1-(5-chloro-pyrazin-2-yl)piperidin-4-yl)-3-(2-methyl-6-(methylsulfonyl)pyridin-3-ylamino)pyrrolidin-2-one] | 27.9 | 2.2
6 | CCc1cnc(N2CCC(N3CCC[C@H](Oc4cc(F)c(S(C)(=O)=O)cc4F)C3=O)CC2)nc1 [Example 165, (S)-3-(2,5-difluoro-4-(methylsulfonyl)phenoxy)-1′-(5-ethylpyrimidin-2-yl)-[1,4′-bipiperidin]-2-one] | 16.0 | 3.2
7 | CS(=O)(=O)c1ccc(N[C@H]2CCN(C3CCN(c4cnc(C(F)(F)F)nc4)CC3)C2=O)c(F)c1 [Example 158, (S)-3-(2-fluoro-4-(methylsulfonyl)phenylamino)-1-(1-(2-(trifluoromethyl)pyrimidin-5-yl)piperidin-4-yl)pyrrolidin-2-one] | 12.5 | 3.2
8 | CCc1cnc(N2CCC(N3CCCC(Oc4cc(F)c(S(C)(=O)=O)cc4F)C3=O)CC2)nc1 (stereo not drawn) [Example 26, 3-(2,5-difluoro-4-(methylsulfonyl)phenoxy)-1′-(5-ethylpyrimidin-2-yl)-1,4′-bipiperidin-2-one] | 19.1 | 4.2
9 | CCc1cnc(N2CCC(N3CC[C@H](N(C)c4cc(F)c(S(C)(=O)=O)cc4F)C3=O)CC2)nc1 [Example 37, (S)-3-((2,5-difluoro-4-(methylsulfonyl)phenyl)(methyl)amino)-1-(1-(5-ethylpyrimidin-2-yl)piperidin-4-yl)pyrrolidin-2-one trifluoroacetate] | 23.4 | 3.4
10 | CCc1cnc(N2CCC(N3CCC[C@H](Nc4cc(F)c(S(C)(=O)=O)cc4F)C3=O)CC2)nc1 [Example 45, (S)-3-(2,5-difluoro-4-(methylsulfonyl)phenylamino)-1′-(5-ethylpyrimidin-2-yl)-[1,4′-bipiperidin]-2-one] | 13.3 | 2.3
11 | CCc1cnc(N2CCC(N3CCC(Oc4ccc(-c5nnn(C)n5)cc4)C3=O)CC2)nc1 (stereo not drawn) [Example 68, 1-(1-(5-ethylpyrimidin-2-yl)piperidin-4-yl)-3-(4-(2-methyl-2H-tetrazol-5-yl)phenoxy)pyrrolidin-2-one] | 8.8 | 1.9
12 | CS(=O)(=O)c1cc(F)c(N[C@H]2CCCN(C3CCN(c4ccc(Cl)nn4)CC3)C2=O)cc1F [Example 52, (S)-1′-(6-chloropyridazin-3-yl)-3-(2,5-difluoro-4-(methylsulfonyl)phenylamino)-[1,4′-bipiperidin]-2-one] | 19.6 | 4.6
13 | CCc1cnc(N2CCC(N3CCC[C@H](Nc4c(F)cc(S(C)(=O)=O)cc4F)C3=O)CC2)nc1 [Example 49, (S)-3-(2,6-difluoro-4-(methylsulfonyl)phen-ylamino)-1′-(5-ethylpyrimidin-2-yl)-[1,4′-bipiperidin]-2-one] | 10.6 | 2.2
14 | CS(=O)(=O)c1cc(F)c(N[C@H]2CCCN(C3CCN(c4ncc(C#N)cn4)CC3)C2=O)cc1F [Example 51, (S)-2-(3-(2,5-difluoro-4-(methylsulfonyl)phenylamino)-2-oxo-[1,4′-bipiperidin]-1′-yl)pyrimidine-5-carbonitrile] | 8.8 | 2.7
15 | Cc1cc(S(C)(=O)=O)ncc1N[C@H]1CCN(C2CCN(c3ncc(Cl)cc3C#N)CC2)C1=O [Example 122, (S)-5-chloro-2-(4-(3-(4-methyl-6-(methylsulfonyl)pyridin-3-ylamino)-2-oxopyrrolidin-1-yl)piperidin-1-yl) icotinonitrile] | 6.5 | 1.5
16 | CS(=O)(=O)c1ccc(N[C@H]2CCN(C3CCN(c4ncc(Br)cn4)CC3)C2=O)c(F)c1 [Example 7, (S)-1-(1-(5-bromopyrimidin-2-yl)piperidin-4-yl)-3-(2-fluoro-4-(methylsulfonyl)phenylamino)pyrrolidin-2-one] | 7.7 | 2.4
17 | CS(=O)(=O)c1ccc(N[C@H]2CCCCN(C3CCN(c4cnc(Cl)cn4)CC3)C2=O)c(F)c1.Cl [Example 80, (S)-1-(1-(5-chloropyrazin-2-yl)piperidin-4-yl)-3-(2-fluoro-4-(methylsulfonyl)phenylamino)azepan-2-one hydrochloride] | 18.3 | 3.7
18 | CS(=O)(=O)c1ccc(N[C@H]2CCN(C3CCN(c4ncc(Cl)cc4F)CC3)C2=O)cn1 [Example 130, (S)-1-(1-(5-chloro-3-fluoropyridin-2-yl)piperidin-4-yl)-3-(6-(methylsulfonyl)pyridin-3-ylamino)pyrrolidin-2-one] | 26.8 | 3.5
19 | CCc1cnc(N2CCC(N3CC[C@H](Nc4cc(C)c(S(C)(=O)=O)cc4F)C3=O)CC2)cn1 [Example 2, (S)-1-(1-(5-ethylpyrazin-2-yl)piperidin-4-yl)-3-(2-fluoro-5-methyl-4-(methylsulfonyl)phenylamino)pyrrolidin-2-one] | 27.9 | 4.8
20 | CCc1cnc(N2CCC(N3CCCC[C@H](Nc4cc(F)c(S(C)(=O)=O)cc4F)C3=O)CC2)nc1.Cl [Example 82, (S)-3-(2,5-difluoro-4-(methylsulfonyl)phenylamino)-1-(1-(5-ethylpyrimidin-2-yl)piperidin-4-yl)azepan-2-one hydrochloride] | 18.5 | 4.0
21 | CCc1cnc(N2CCC(N3CCC(Oc4cc(F)c(S(C)(=O)=O)cc4F)C3=O)CC2)nc1 (stereo not drawn) [Example 87, 3-(2,5-difluoro-4-(methylsulfonyl)phenoxy)-1-(1-(5-ethylpyrimidin-2-yl)piperidin-4-yl)pyrrolidin-2-one trifluoroactetate] | 5.5 | 1.8
22 | Cc1cc(N[C@H]2CCN(C3CCN(c4cnc(Cl)cn4)CC3)C2=O)cnc1S(C)(=O)=O (stereo in doubt) [Example 135, 1-(1-(5-chloropyrazin-2-yl)piperidin-4-yl)-3-(5-methyl-6-(methylsulfonyl)pyridin-3-ylamino)pyrrolidin-2-one] | 31.0 | 6.6
23 | COC(=O)c1ccc(O[C@H]2CCN(C3CCN(c4ncc(C(F)(F)F)cc4Cl)CC3)C2=O)c(F)c1 [Example 140, (S)-methyl 4-(1-(1-(3-chloro-5-(trifluoro-methyl)pyridin-2-yl)piperidin-4-yl)-2-oxopyrrolidin-3-yloxy)-3-fluorobenzoate] | 12.2 | 2.7
24 | CS(=O)(=O)c1cc(F)c(N[C@H]2CCN(C3CCN(c4ccc(C(F)(F)F)cn4)CC3)C2=O)c(F)c1 [Example 101, (S)-3-(2,6-difluoro-4-(methylsulfonyl)phenylamino)-1-(1-(5-(trifluoromethyl)pyridin-2-yl)piperidin-4-yl)pyrrolidin-2-one] | 6.6 | 2.0
